{"source": "patent US20190015400A1", "about": "“Antifungal Compositions” (priority 2017, published 2019)", "key": {"[1]": {"tested_on": "C. glabrata ATCC 2001 (strain H)", "test": "Time-kill assay, POS and EBA", "type": "cell-based, Candida glabrata", "conditions": "drug alone (POS at concentration used in MICcombination; NYT, AMB at 1×MIC), inoculum 10^5", "method": "The protocol for time-kill assays followed methods previously described with minor modifications. Yeast cultures were grown overnight in YEPD medium at 35° C. with shaking at 200 rpm. A working stock of fungal cells was made by diluting cultures in 1640 medium to an OD600 of 0.125 (˜1×10^6 CFU/mL). From the working stock, 100 μL of cells was added to 4.9 mL of RPMI 1640 medium in sterile culture tubes, making the starting fungal cell concentration ˜1×10^5 CFU/mL. Drug was then added to the fungal cells. […] Treated fungal cultures were incubated in the culture tubes at 35° C. with 200 rpm shaking for 24 h. Samples were aliquoted from the different treatments at regular time points (0, 3, 6, 9, 12, and 24 h) and plated in duplicate. For each time point, cultures were vortexed, 100 μL of culture was aspirated, and 10-fold serial dilutions were made in sterile ddH2O. From the appropriate dilutions, 100 μL of fungal suspension was spread on PDA plates and incubated at 35° C. for 48 h before colony counts were determined. At 24 h, 50 μL of 1 mM resazurin in phosphate buffered saline (PBS) was added to the treatments and incubated at 35° C. with 200 rpm shaking for 2 h in the dark for visual inspection. […] Experiments were performed in duplicate."}, "[2]": {"tested_on": "C. albicans ATCC 10231 (strain B) biofilm", "test": "Biofilm disruption assay (XTT, SMIC90), POS and EBA", "type": "cell-based, Candida albicans", "conditions": "drug alone", "method": "(§1) Biofilm disruption assays. […] Biofilm assays were performed in 96-well plates using XTT [2,3-bis(2-methoxy-4-nitro-5-sulfophenyl)-2H-tetrazolium-5-carboxanilide] to measure the viability of the biofilm as previously described. An overnight culture of yeast was grown at 35° C. in YEPD medium with shaking at 200 rpm. The overnight culture was diluted in RPMI 1640 medium to an OD600 between 0.12 and 0.15 to make a working stock. Working stock was transferred to the 96-well plate in 100 μL aliquots, leaving one column empty for the sterile control. The plates were incubated at 37° C. for 24 h to allow formation of the biofilm. The medium and planktonic cells from the plate were then aspirated. PBS was then used to wash any remaining planktonic cells off of the biofilm wells. 100 μL of PBS was aliquoted into wells and then removed. The wells were washed 3 times with PBS. […] Plates were incubated at 37° C. for 24 h. Finally, the plates were washed 3 times with PBS before adding 100 μL of XTT dye. The XTT was prepared by dissolving XTT at 0.5 mg/mL concentration in sterile PBS. Before adding to a plate, 1 μL of 10 mM menadione in acetone was added to 10 mL of the 0.5 mg/mL solution of XTT. After addition of XTT (containing menadione), the plates were incubated at 3 h at 37° C. in the dark. 80 μL of liquid from each well was transferred to a new plate. Plates were then read with a SpectraMax M5 plate reader (Molecular Devices, Sunnyvale, Calif., USA) for absorbance at 450 nm. For these experiments, we determined the sessile MIC (SMIC90), which is defined as the drug concentration required to inhibit the metabolic activity of biofilm by 90% compared to the growth control. The SMIC90 values were used to calculate the FICI as described above (TABLE 10). The plates used to determine the SMIC90 are provided in FIGS. 91A-H. Each assay was performed in duplicate."}, "[3]": {"tested_on": "C. albicans ATCC 64124 (strain F) biofilm", "test": "Biofilm disruption assay (XTT, SMIC90), POS and EBA", "type": "cell-based, Candida albicans", "conditions": "drug alone", "method": "as §1"}}}
{"compound": "CC[C@@H]([C@H](C)O)n1ncn(-c2ccc(N3CCN(c4ccc(OC[C@@H]5CO[C@@](Cn6cncn6)(c6ccc(F)cc6F)C5)cc4)CC3)cc2)c1=O", "note": "[POS, posaconazole]", "values": [{"measurement": "CFU/mL at 24 h", "setting": "[1]", "result": "10^8 CFU/mL"}, {"measurement": "SMIC90", "setting": "[2]", "result": "> 32", "unit": "µg/mL"}, {"measurement": "SMIC90", "setting": "[3]", "result": "> 32", "unit": "µg/mL"}]}
